Source: ChEMBL document CHEMBL1201862, “PubChem BioAssay data set” (2004)
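Briefly, cells in 96-well plates were exposed to five compound concentrations for 48 h, and endpoints were estimated by linear interpolation. GI50: concentration for 50% inhibition of growth.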 Activity calls are given as the source filed them. Cut-off read from the data, not from the text of the source: active = GI50 up to about 1.1 µM and inactive = higher.

Key:
Test in all cases: DTP human tumour cell line panel, 48 h
IGROV-1 = tested on: IGROV-1
BT-549 = tested on: BT-549
NCI-H460 = tested on: NCI-H460
SF-295 = tested on: SF-295
SK-MEL-5 = tested on: SK-MEL-5
NCI-H522 = tested on: NCI-H522
DU-145 = tested on: DU-145
U-251 = tested on: U-251
NCI/ADR-RES = tested on: NCI/ADR-RES
KM12 = tested on: KM12
NCI-H226 = tested on: NCI-H226
SR = tested on: SR
K562 = tested on: K562
UO-31 = tested on: UO-31
NCI-H23 = tested on: NCI-H23
HCT-15 = tested on: HCT-15
SW-620 = tested on: SW-620
ACHN = tested on: ACHN
TK-10 = tested on: TK-10

COC(=O)/C=C(/C(=O)OC)c1c(C)c(C)c2c(C)cc(C)cc(C)c1-2
GI50 (IGROV-1): 37.9 µM (inactive)
GI50 (BT-549): 22.4 µM (inactive)
GI50 (NCI-H460): 29 µM (inactive)
GI50 (SF-295): 20.9 µM (inactive)
GI50 (SK-MEL-5): 12.6 µM (inactive)
GI50 (NCI-H522): 12.2 µM (inactive)
GI50 (DU-145): 36.9 µM (inactive)
GI50 (U-251): 26.9 µM (inactive)
GI50 (NCI/ADR-RES): 15.2 µM (inactive)
GI50 (KM12): 32.7 µM (inactive)
GI50 (NCI-H226): 13.3 µM (inactive)
GI50 (SR): 45.5 µM (inactive)
GI50 (K562): > 100 µM (inactive)
GI50 (UO-31): 13.6 µM (inactive)
GI50 (NCI-H23): 23.8 µM (inactive)
GI50 (HCT-15): 8.85 µM
GI50 (SW-620): 17.1 µM (inactive)
GI50 (ACHN): 20 µM (inactive)
GI50 (TK-10): 55.1 µM (inactive)

CC(=O)Nc1ccc(-c2cc(C(=O)O)c3cc4ccccc4cc3n2)cc1
GI50 (IGROV-1): > 100 µM (inactive)
GI50 (BT-549): > 100 µM (inactive)
GI50 (NCI-H460): > 100 µM (inactive)
GI50 (SF-295): > 100 µM (inactive)
GI50 (SK-MEL-5): > 100 µM (inactive)
GI50 (NCI-H522): > 100 µM (inactive)
GI50 (DU-145): > 100 µM (inactive)
GI50 (U-251): > 100 µM (inactive)
GI50 (NCI/ADR-RES): > 100 µM (inactive)
GI50 (KM12): > 100 µM (inactive)
GI50 (NCI-H226): > 100 µM (inactive)
GI50 (SR): > 100 µM (inactive)
GI50 (K562): > 100 µM (inactive)
GI50 (NCI-H23): > 100 µM (inactive)
GI50 (HCT-15): > 100 µM
GI50 (SW-620): > 100 µM (inactive)
GI50 (ACHN): > 100 µM (inactive)
GI50 (TK-10): > 100 µM (inactive)

CCOP(=O)(OCC)/C(C#N)=C/c1cccn1CC(C)C
GI50 (IGROV-1): > 100 µM (inactive)
GI50 (BT-549): > 100 µM (inactive)
GI50 (NCI-H460): > 100 µM (inactive)
GI50 (SF-295): > 100 µM (inactive)
GI50 (SK-MEL-5): 40.9 µM (inactive)
GI50 (NCI-H522): 81.8 µM (inactive)
GI50 (DU-145): > 100 µM (inactive)
GI50 (U-251): > 100 µM (inactive)
GI50 (NCI/ADR-RES): > 100 µM (inactive)
GI50 (KM12): 89.9 µM (inactive)
GI50 (NCI-H226): 35.7 µM (inactive)
GI50 (SR): > 100 µM (inactive)
GI50 (K562): 39.9 µM (inactive)
GI50 (UO-31): 61.4 µM (inactive)
GI50 (NCI-H23): > 100 µM (inactive)
GI50 (HCT-15): > 100 µM
GI50 (SW-620): > 100 µM (inactive)
GI50 (ACHN): > 100 µM (inactive)
GI50 (TK-10): > 100 µM (inactive)

CCOc1cc(C2SCC(=O)N2c2ccc(Oc3ccc(Cl)cc3)c(Cl)c2)ccc1O (stereo unspecified)
GI50 (IGROV-1): 15.9 µM (inactive)
GI50 (BT-549): 15.1 µM (inactive)
GI50 (NCI-H460): 19.2 µM (inactive)
GI50 (SF-295): 18.9 µM (inactive)
GI50 (SK-MEL-5): 16.1 µM (inactive)
GI50 (NCI-H522): 13.2 µM (inactive)
GI50 (DU-145): 16.6 µM (inactive)
GI50 (U-251): 18.4 µM (inactive)
GI50 (NCI/ADR-RES): 17.7 µM (inactive)
GI50 (KM12): 16.9 µM (inactive)
GI50 (NCI-H226): 15.6 µM (inactive)
GI50 (SR): 2.04 µM (inactive)
GI50 (K562): 27.1 µM (inactive)
GI50 (UO-31): 10 µM (inactive)
GI50 (NCI-H23): 17 µM (inactive)
GI50 (HCT-15): 19.6 µM
GI50 (SW-620): 17 µM (inactive)
GI50 (ACHN): 17.4 µM (inactive)
GI50 (TK-10): 17.6 µM (inactive)

CS(=O)(=O)N(CC(=O)O)Cc1ccccc1
GI50 (IGROV-1): > 100 µM (inactive)
GI50 (BT-549): > 100 µM (inactive)
GI50 (NCI-H460): > 100 µM (inactive)
GI50 (SF-295): > 100 µM (inactive)
GI50 (SK-MEL-5): > 100 µM (inactive)
GI50 (NCI-H522): > 100 µM (inactive)
GI50 (DU-145): > 100 µM (inactive)
GI50 (U-251): > 100 µM (inactive)
GI50 (NCI/ADR-RES): > 100 µM (inactive)
GI50 (KM12): > 100 µM (inactive)
GI50 (NCI-H226): > 100 µM (inactive)
GI50 (SR): > 100 µM (inactive)
GI50 (K562): > 100 µM (inactive)
GI50 (NCI-H23): > 100 µM (inactive)
GI50 (HCT-15): > 100 µM
GI50 (SW-620): > 100 µM (inactive)
GI50 (ACHN): > 100 µM (inactive)
GI50 (TK-10): > 100 µM (inactive)

CCCCCCC(N)(CCCCCC)C(=O)Nn1c(C)ccc1C
GI50 (IGROV-1): > 100 µM (inactive)
GI50 (BT-549): > 100 µM (inactive)
GI50 (NCI-H460): 31.8 µM (inactive)
GI50 (SF-295): > 100 µM (inactive)
GI50 (SK-MEL-5): 21.9 µM (inactive)
GI50 (NCI-H522): 53.8 µM (inactive)
GI50 (DU-145): > 100 µM (inactive)
GI50 (U-251): > 100 µM (inactive)
GI50 (NCI/ADR-RES): 16 µM (inactive)
GI50 (KM12): 15.5 µM (inactive)
GI50 (NCI-H226): 43.7 µM (inactive)
GI50 (SR): 29.9 µM (inactive)
GI50 (K562): > 100 µM (inactive)
GI50 (UO-31): 25.1 µM (inactive)
GI50 (NCI-H23): 15.5 µM (inactive)
GI50 (HCT-15): 24 µM
GI50 (SW-620): > 100 µM (inactive)
GI50 (ACHN): 6.55 µM (inactive)
GI50 (TK-10): > 100 µM (inactive)

O=C(O)COc1cccc2ccccc(=O)c12
GI50 (IGROV-1): > 100 µM (inactive)
GI50 (BT-549): > 100 µM (inactive)
GI50 (NCI-H460): > 100 µM (inactive)
GI50 (SF-295): > 100 µM (inactive)
GI50 (SK-MEL-5): > 100 µM (inactive)
GI50 (NCI-H522): > 100 µM (inactive)
GI50 (DU-145): > 100 µM (inactive)
GI50 (U-251): > 100 µM (inactive)
GI50 (NCI/ADR-RES): > 100 µM (inactive)
GI50 (KM12): > 100 µM (inactive)
GI50 (NCI-H226): > 100 µM (inactive)
GI50 (SR): > 100 µM (inactive)
GI50 (K562): > 100 µM (inactive)
GI50 (UO-31): > 100 µM (inactive)
GI50 (NCI-H23): > 100 µM (inactive)
GI50 (HCT-15): > 100 µM
GI50 (SW-620): > 100 µM (inactive)
GI50 (ACHN): > 100 µM (inactive)
GI50 (TK-10): > 100 µM (inactive)

S=C(/N=C1/NCC(CN2CCN(c3ccccc3)CC2)O1)Nc1ccccc1 (stereo unspecified)
GI50 (IGROV-1): > 100 µM (inactive)
GI50 (BT-549): 37.5 µM (inactive)
GI50 (NCI-H460): 23.3 µM (inactive)
GI50 (SF-295): 49 µM (inactive)
GI50 (SK-MEL-5): 35.3 µM (inactive)
GI50 (NCI-H522): > 100 µM (inactive)
GI50 (DU-145): 56.9 µM (inactive)
GI50 (U-251): 55.3 µM (inactive)
GI50 (NCI/ADR-RES): > 100 µM (inactive)
GI50 (KM12): 65.2 µM (inactive)
GI50 (NCI-H226): > 100 µM (inactive)
GI50 (SR): 34.6 µM (inactive)
GI50 (K562): 35.2 µM (inactive)
GI50 (UO-31): 11.6 µM (inactive)
GI50 (NCI-H23): 29.3 µM (inactive)
GI50 (HCT-15): 32.4 µM
GI50 (SW-620): 52.7 µM (inactive)
GI50 (ACHN): > 100 µM (inactive)
GI50 (TK-10): > 100 µM (inactive)

C=C1C(O)C2OC(=O)C(=C)C2C(OC(=O)/C(C)=C/C)CC2(C)OC2C2OC12 (stereo unspecified)
GI50 (IGROV-1): 6.15 µM (inactive)
GI50 (BT-549): 7.71 µM (inactive)
GI50 (NCI-H460): 3.78 µM (inactive)
GI50 (SF-295): 14.2 µM (inactive)
GI50 (SK-MEL-5): 6.22 µM (inactive)
GI50 (NCI-H522): 3.15 µM (inactive)
GI50 (DU-145): 7.14 µM (inactive)
GI50 (U-251): 17.2 µM (inactive)
GI50 (NCI/ADR-RES): 7.93 µM (inactive)
GI50 (KM12): 2.86 µM (inactive)
GI50 (NCI-H226): > 100 µM (inactive)
GI50 (SR): 1.93 µM (inactive)
GI50 (UO-31): 5.98 µM (inactive)
GI50 (NCI-H23): 8.28 µM (inactive)
GI50 (HCT-15): 2.55 µM
GI50 (SW-620): 8.04 µM (inactive)
GI50 (ACHN): 3.69 µM (inactive)
GI50 (TK-10): 14.4 µM (inactive)

O=[N+]([O-])c1cccc(-c2ccc([C@H]3CC(c4ccc(Cl)cc4)=NN3)o2)c1
GI50 (IGROV-1): 21 µM (inactive)
GI50 (BT-549): 17.6 µM (inactive)
GI50 (SF-295): 44.8 µM (inactive)
GI50 (SK-MEL-5): 13.8 µM (inactive)
GI50 (NCI-H522): 21.2 µM (inactive)
GI50 (DU-145): 15.3 µM (inactive)
GI50 (NCI/ADR-RES): 7.83 µM (inactive)
GI50 (NCI-H226): 25.5 µM (inactive)
GI50 (SR): 0.433 µM (active)
GI50 (K562): 19.1 µM (inactive)
GI50 (UO-31): 22.1 µM (inactive)
GI50 (HCT-15): 5.15 µM
GI50 (SW-620): 19.5 µM (inactive)
GI50 (ACHN): 17.7 µM (inactive)
GI50 (TK-10): 19.6 µM (inactive)

CC[C@@]12CCCN3CC[C@]4(c5cccc(OC)c5N(C(C)=O)[C@@H]4CC1)[C@H]32 [ASPIDOSPERMINE]
GI50 (IGROV-1): 24.2 µM (inactive)
GI50 (BT-549): 86.9 µM (inactive)
GI50 (NCI-H460): 54.3 µM (inactive)
GI50 (SF-295): 46.6 µM (inactive)
GI50 (SK-MEL-5): 44.3 µM (inactive)
GI50 (NCI-H522): 32.3 µM (inactive)
GI50 (DU-145): > 100 µM (inactive)
GI50 (U-251): 94 µM (inactive)
GI50 (NCI/ADR-RES): > 100 µM (inactive)
GI50 (KM12): 84.5 µM (inactive)
GI50 (NCI-H226): 93.8 µM (inactive)
GI50 (SR): 27.7 µM (inactive)
GI50 (UO-31): 68.5 µM (inactive)
GI50 (NCI-H23): > 100 µM (inactive)
GI50 (HCT-15): 79.3 µM
GI50 (SW-620): > 100 µM (inactive)
GI50 (ACHN): > 100 µM (inactive)
GI50 (TK-10): 56.5 µM (inactive)
